Measurements taken from patent publication US7815907B2, “Antibodies to insulin-like growth factor I receptor” (Amgen Fremont Inc., priority 2001, dated 2010).

Key:
Assay type in all cases: in vivo, nude mice
[1] = tested on: Colo 205 tumors; assay: Growth inhibition of colorectal cell tumors
Protocol: Tumors were induced in nude mice as described in Example IX except that Colo 205 cells (ATCC CCL 222) were used. Colo 205 cells are human colorectal adenocarcinoma cells. Mice with established subcutaneous tumors of approximately 250 mm^3 were treated with various amounts of 2.13.2 antibody (i.p.) or with 100 mg/kg […] (5-FU, i.v.), either as single agents or in combination, as described in Example IX. […] Mice with established Colo 205 tumors were treated on days 1, 8, 15 and 22 with 500 μg 2.13.2 (i.p.), 100 mg/kg 5-FU (i.v.) or a combination thereof.

[2] = target: IGF-IR (Homo sapiens, UniProt P08069); assay: IGF-IR levels in 3T3/IGF-IR tumors by western blot after antibody and/or adriamycin; set-up: expressed in transfected cells; host or cells: NIH-3T3 (mouse fibroblasts)
Protocol: Tumors were induced in nude mice as described in Example IX. Mice with established subcutaneous tumors of approximately 400 mm^3 were treated with a single injection of 250 μg 2.13.2 antibody (i.p.) or with 7.5 mg/kg adriamycin (i.v.), either as single agents or in combination, as described in Example IX. 72 hours after administration of the agents, tumors were extracted as described in Example VIII, and equal amounts of the tumor extracts were subjected to sodium […] polyacrylamide gel electrophoresis (SDS PAGE) and western blot analysis using the anti-IGF-IR antibody SC-713 (Santa Cruz). […] Each lane represents equal amounts of protein from individual tumors from individual mice.

[3] = tested on: MCF-7 tumors; assay: Growth inhibition of breast cancer cell tumors
Protocol: Nude mice as described in Example VIII were implanted with biodegradable estrogen pellets (0.72 mg 17-β-estradiol/pellet, 60 day release; Innovative Research of America). After 48 hours, tumors were induced in nude mice essentially as described in Example IX except that MCF-7 cells (ATCC HTB-22) were used. MCF-7 cells are estrogen-dependent human breast carcinoma cells. Mice with established subcutaneous tumors of approximately 250 mm^3 were treated with 50 μg 2.13.2 antibody (i.p.) on days 1, 4, 7, 10, 13, 16, 19 and 22 […] or with 6.25 mg/kg taxol (i.p.) on days 1, 2, 3, 4, 5 (q1dx5), either as single agents or in combination, essentially as described in Example IX.
Mice having established tumors from MCF-7 cells as described immediately above were treated on day 1 with various amounts of 2.13.2 antibody (i.p.) alone or with 3.75 mg/kg adriamycin (i.v.), essentially as described in Example IX.
Mice having established tumors from MCF-7 cells as described immediately above were treated with 250 μg 2.13.2 antibody (i.p.) on days 1, 8, 15 and 23 or with a biodegradable tamoxifen pellet (25 mg/pellet, free base, 60 day release, Innovative Research of America), either as single agents or in combination, essentially as described in Example IX. The tamoxifen pellet was implanted on day 1 after the tumor was established.

## 2.13.2: human IgG2κ monoclonal antibody specific for IGF-IR from hybridoma 2.13.2 (ATCC PTA-2788)
[1]; 500 μg i.p. on days 1, 8, 15 and 22
  Colo 205 tumor growth: inhibits human colorectal cancer cell growth
[1]; 500 μg i.p. on days 1, 8, 15 and 22 with 100 mg/kg 5-FU i.v.
  effect on effectiveness of 5-FU: enhances the effectiveness of 5-FU
[1]; antibody given once with 100 mg/kg 5-FU i.v.
  effect on effectiveness of 5-FU: enhances the effectiveness of 5-FU
[1]; antibody i.p. given once, single agent
  Colo 205 tumor growth: inhibits human colorectal cancer cell growth
[2]; 72 hours after 250 μg 2.13.2 i.p. plus 7.5 mg/kg adriamycin i.v.
  IGF-IR levels in tumors, adriamycin and antibody together: dramatic decrease in IGF-IR levels
[2]; 72 hours after single 250 μg 2.13.2 i.p. or 7.5 mg/kg adriamycin i.v.
  IGF-IR levels in tumors, single agent: some decrease in IGF-IR levels
[3]; 50 μg i.p. once every three days with 6.25 mg/kg taxol i.p. q1dx5
  effect on effectiveness of taxol: enhances the effectiveness of taxol
[3]; 50 μg i.p. once every three days, by itself
  MCF-7 tumor growth: inhibits human breast cancer cell growth
[3]; 250 μg i.p. on days 1, 8, 15 and 23, by itself
  MCF-7 tumor growth: inhibits human breast cancer growth
[3]; 250 μg i.p. on days 1, 8, 15 and 23 with tamoxifen pellet 25 mg
  effect on effectiveness of tamoxifen: enhances the effectiveness of tamoxifen
[3]; single treatment i.p. on day 1, by itself
  MCF-7 tumor growth: inhibits human breast cancer cell growth
[3]; single treatment on day 1 with 3.75 mg/kg adriamycin i.v.
  effect on effectiveness of adriamycin: enhances the effectiveness of adriamycin
